The results in this text go back to patent US20230233617A1, “METHODS FOR DIFFERENTIATING STEM CELLS INTO DOPAMINERGIC PROGENITOR CELLS” (JZ CELL TECHNOLOGIES AB, priority 2020, published 2023).

For one test, the system named is hPSC-derived NSCs. Put plainly: Regional identity of hPSC-derived NSCs at 9 DDC after RA pulse in dSMADi conditions. In kind it is cell-based, human. As for the experimental part:
Cells were fixed for 12 min at room temperature (RT) in 4% paraformaldehyde in PBS, rinsed 3 times in PBST (PBS with 0.1% Triton-X100), and blocked for 1 hour at RT with blocking solution (3% FCS/0.1% Triton-X100 in PBS). Cells were then incubated with primary antibodies overnight at 4° C., followed by incubation with fluorophore-conjugated secondary antibodies for 1 hour at RT. Both primary and fluorophore-conjugated secondary antibodies were diluted in blocking solution. Primary antibodies used are listed in Supplementary Table 1. Appropriate Alexa (488, 555, 647)-conjugated secondary antibodies (Molecular Probes) were used.

In test [1] the test system is hPSC-derived vMB progenitors. Put plainly: Neurogenesis and mDA neuron yield in differentiating hPSC cultures (HuCD, TuJ1, TH, GABA immunocytochemistry, electrophysiology). It counts as cell-based, human. From the text:
A unique feature of mDA neurons is that they originate from initially non-neuronal floor plate (FP) cells at the ventral midline of the MB, and progenitors must acquire neuronal potential prior to differentiation into neurons^30,44. Few markers distinguish between these states, but downregulation of SHH and upregulation pro-neural bHLH proteins over time correlate with this transition^44. […] In RA^2D+SAG cultures at 21 DDC, ˜30% of DAPI^+ cells accounted for HuCD^+ neurons (FIG. 4d) and many of these had initiated expression of TH (FIG. 4c). When we instead used CHIR99021+SAG to specify LMX1A^+/NKX2.1^− vMB progenitors (FIG. 3b), cells initiated neurogenesis at around 17 DDC (FIG. 4c, d) which is consistent with previous studies^9,13. At 21 DDC, HuCD^+ neurons constituted ˜10% of total cells and few neurons expressed TH (FIG. 4c, d).
TH^+ neurons acquired a progressively more advanced neuronal morphology with a progressive outgrowth of TH^+ axonal processes in RA^2D+SAG cultures between 30-45 DDC (FIG. 4e, g, h; FIG. 8f (Supplementary FIG. 2f)). TH^+ neurons expressed mDA neuron markers LMX1A, LMX1B, FOXA2, NURR1, and OTX2 at 30-35 DDC (FIG. 4e). […] TH^+ neurons also expressed the mature neuronal marker SYNAPTOPHYSIN and the monoaminergic marker VMAT2 (FIG. 40. A subset of cells expressed GIRK2 or CALBINDIN indicating the presence of both A9- and A10-like subtypes of mDA neurons^45 (FIG. 4f). At 35 DDC, ˜80% of neurons expressed TH^+ which corresponded to ˜65% of total DAPI^+ cells (FIG. 4i, j). ˜10% of neurons expressed GABA (FIG. 4i, j), and some of these co-expressed TH (FIG. 10c (Supplementary FIG. 4c)). Only rare neurons expressing 5-HT or the MN marker PERIPHERIN were detected (FIG. 4i, j). High performance liquid chromatography (HPLC) analyses at 42 DDC established that neurons produced and released dopamine (FIG. 4k, I) but not serotonin (5-HT) or noradrenaline (NA) (FIG. 4k). […] Very few cells expressed Ki67 or phospho-histone H3 at 35-40 DDC indicating low mitotic activity after long-term culturing of cells (FIG. 4i). Functional maturation of mDA neurons in vitro can be monitored by determining the time when hPSC-derived mDA neurons acquire spontaneous action potentials, evoked action potentials and voltage-dependent Na^+ and K^+ currents, and these traits were previously reported to be attained after ˜60 days of culture of FACS-enriched mDA neurons (25+36 days: before/after sorting) using current state-of-the-art protocols^7. […] Neurons showing both spontaneous (FIG. 4m) and evoked action potentials (FIG. 4n) could be recorded at 40 DDC.
80-90% confluent PSCs cultures were rinsed twice with PBS, treated with EDTA (0.5 mM in PBS) for 5-7 min, and resuspended into single cell suspension in PBS. Cells were spin down at 400 g and resuspended in N2B27 medium (DMEM/F12: Neurobasal (1:1), 0.5×N2 and 0.5×B27 (plus vitamin A) supplements, 1×nonessential amino acids, 1% GlutaMAX, 55 μM β-mercaptoethanol-all from Thermo Fisher Scientific) containing 5 μM SB431542 (Miltenyi Biotech) and 2.5 μM DMH1 (Santa Cruz Biotech) (dual SMAD inhibition), and 10 μM ROCK inhibitor (for the first 48 hours after seeding). Cells were seeded on VTN (2 μg/cm^2) and Fibronectin (FN) (2 μg/cm^2) (Sigma) coated surface at a density of 60,000-80,000 cells/cm^2 for RA- and RA-analogues based experiments, and 20,000 cells/cm^2 for CHIR99021 experiments. SAG1.3 (Santa Cruz Biotechnology), CHIR99021 (Miltenyi Biotech), all-trans RA, 9-cis RA, 13-cis RA, Tazarotenic acid, R115866 (all Sigma), EC23 (Amsbio) were used at concentrations and time points described in the result section. For mDA neuron differentiation (see schematic drawing FIG. 4) neural progenitors were mechanically dissociated at 9 DDC with Stem Cell Passaging Tool (Thermo Fisher Scientific) and seeded at 1:3 ratio in N2B27 medium containing 10 μM ROCK inhibitor (for first 48 hours after dissociation) on VTN and FN coated surfaces. […]

As to `CC1=C(/C=C/C(C)=C/C=C/C(C)=C/C(=O)O)C(C)(C)CCC1` [RA, all-trans retinoic acid], the “regional identity of NSCs” value is recorded as “FB-like character” with hPSC-derived NSCs (200 nM RA for 1 day (RA^1D)), “FOXG1^−/OTX2^+/HOXA2^− MB-like character” in the test on hPSC-derived NSCs (200 nM RA for 2 days (RA^2D)), “FOXG1^−/OTX2^−/HOXA2^+/HOXB4^− rostral HB” in the test with hPSC-derived NSCs (200 nM RA for 3 days (RA^3D)) and “FOXG1^−/OTX2^−/HOXA2^+/HOXB4^+ caudal HB” with hPSC-derived NSCs (200 nM RA for 4 days (RA^4D)). Besides, in test [1] (14 DDC, immunocytochemistry), the “share of cell population that are ventral midbrain dopaminergic progenitor cells (FOXA2, LMX1A, LMX1B, OTX2)” value is reported as “about 80%”. Further, the “HuCD+ neurons as share of total DAPI+ cells” value in test [1] (21 DDC, with SAG) was ~30%. The “TH+ cells of total DAPI+ cells” value in test [1] (RA^2D+SAG, 35 DDC) is on record as ~65%. For the same compound, the “neurons expressing GABA” value in test [1] (RA^2D+SAG, 35 DDC) was ~10%. In addition, the “neurons expressing TH” value in test [1] (RA^2D+SAG, 35 DDC, of neurons) is recorded as ~80%. The “culture time to mDA neurons exhibiting mature functional features” value in test [1] (RA^2D+SAG, spontaneous and evoked action potentials) was determined as 40 days. The “time of initiation of neurogenesis (first neurons)” value in test [1] (with SAG) is on record as 12 DDC.
